Active and inactive are the calls of the source. No cut-off for these calls is given here.
Legend:
[1] = target: Serine/threonine-protein kinase Chk2 (Homo sapiens) (UniProt O96017); test: Inhibition of CHK2 at 1 uM
[2] = target: T1, Serine/threonine-protein kinase 17A (Homo sapiens) (UniProt Q9UEE5); test: Inhibition of DRAK1 at 1 uM
T1 sequence (whole entry): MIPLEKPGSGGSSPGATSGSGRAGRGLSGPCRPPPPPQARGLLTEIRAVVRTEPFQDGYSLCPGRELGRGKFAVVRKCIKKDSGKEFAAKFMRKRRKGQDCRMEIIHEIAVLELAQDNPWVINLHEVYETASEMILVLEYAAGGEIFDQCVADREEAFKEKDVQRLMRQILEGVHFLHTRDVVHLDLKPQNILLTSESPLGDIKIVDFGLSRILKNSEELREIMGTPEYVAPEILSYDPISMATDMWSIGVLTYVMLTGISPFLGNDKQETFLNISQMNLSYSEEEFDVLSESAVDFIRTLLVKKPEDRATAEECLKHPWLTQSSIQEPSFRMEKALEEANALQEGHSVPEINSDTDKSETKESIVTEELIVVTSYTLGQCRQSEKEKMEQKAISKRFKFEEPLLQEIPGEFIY

[3] = target: Serine/threonine-protein kinase pim-3 (Homo sapiens) (UniProt Q86V86); test: Inhibition of PIM3 at 1 uM
[4] = system: THP-1; test: Antiinflammatory activity in human THP1 cells assessed as inhibition of LPS-induced TNFalpha production pretreated 30 mins before LPS challenge measured after 4 hrs; type: functional, cell-based
[5] = target: Mitogen-activated protein kinase 3 (Homo sapiens) (UniProt P27361); test: Inhibition of ERK1 at 1 uM
Mitogen-activated protein kinase 3 (Homo sapiens), sequence (P27361 whole entry): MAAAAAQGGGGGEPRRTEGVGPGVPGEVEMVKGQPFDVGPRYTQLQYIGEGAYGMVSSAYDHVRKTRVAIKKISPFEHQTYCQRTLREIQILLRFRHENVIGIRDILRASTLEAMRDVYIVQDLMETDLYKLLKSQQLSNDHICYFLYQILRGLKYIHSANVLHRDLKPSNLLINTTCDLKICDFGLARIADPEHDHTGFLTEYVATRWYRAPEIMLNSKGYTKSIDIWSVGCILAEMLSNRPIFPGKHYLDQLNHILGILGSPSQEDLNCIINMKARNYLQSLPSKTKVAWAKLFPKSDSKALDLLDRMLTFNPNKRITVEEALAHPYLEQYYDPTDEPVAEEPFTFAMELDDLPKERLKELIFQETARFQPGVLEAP

[6] = target: Mitogen-activated protein kinase 1 (Homo sapiens) (UniProt P28482); test: Inhibition of ERK2 at 1 uM
Mitogen-activated protein kinase 1 (Homo sapiens), sequence (P28482 whole entry, looked up): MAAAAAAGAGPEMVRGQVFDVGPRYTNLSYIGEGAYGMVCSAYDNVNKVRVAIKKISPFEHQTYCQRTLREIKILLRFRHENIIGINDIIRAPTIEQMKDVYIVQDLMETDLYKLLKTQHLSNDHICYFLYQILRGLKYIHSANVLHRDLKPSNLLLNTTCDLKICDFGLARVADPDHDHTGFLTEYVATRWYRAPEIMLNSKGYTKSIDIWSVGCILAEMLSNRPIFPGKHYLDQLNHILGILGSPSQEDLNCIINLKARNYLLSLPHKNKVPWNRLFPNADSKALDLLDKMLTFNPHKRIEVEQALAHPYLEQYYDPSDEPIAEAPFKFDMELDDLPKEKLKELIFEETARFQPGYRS

[7] = target: MAP kinase-activated protein kinase 2 (Homo sapiens, UniProt P49137); test: Inhibition of MK2 pretreated for 30 mins before fluorescein labeled substrate peptide addition measured after 2 hrs by IMAP assay
MAP kinase-activated protein kinase 2, sequence (P49137 whole entry): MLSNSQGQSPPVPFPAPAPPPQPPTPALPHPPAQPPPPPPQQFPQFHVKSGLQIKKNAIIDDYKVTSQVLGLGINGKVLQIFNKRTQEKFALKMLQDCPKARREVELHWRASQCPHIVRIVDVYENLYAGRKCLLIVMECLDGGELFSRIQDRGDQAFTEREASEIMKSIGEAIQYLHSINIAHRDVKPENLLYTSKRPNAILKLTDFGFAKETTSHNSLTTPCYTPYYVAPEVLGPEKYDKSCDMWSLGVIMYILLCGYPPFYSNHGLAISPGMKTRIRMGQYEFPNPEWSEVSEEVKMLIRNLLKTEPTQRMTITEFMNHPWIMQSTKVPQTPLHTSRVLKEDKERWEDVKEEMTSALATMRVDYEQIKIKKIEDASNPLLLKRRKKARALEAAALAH

[8] = Inhibition of p38
[9] = target: Serine/threonine-protein kinase pim-1 (Homo sapiens) (UniProt P11309); test: Inhibition of PIM1 at 1 uM
Serine/threonine-protein kinase pim-1 (Homo sapiens), sequence (P11309 whole entry, looked up): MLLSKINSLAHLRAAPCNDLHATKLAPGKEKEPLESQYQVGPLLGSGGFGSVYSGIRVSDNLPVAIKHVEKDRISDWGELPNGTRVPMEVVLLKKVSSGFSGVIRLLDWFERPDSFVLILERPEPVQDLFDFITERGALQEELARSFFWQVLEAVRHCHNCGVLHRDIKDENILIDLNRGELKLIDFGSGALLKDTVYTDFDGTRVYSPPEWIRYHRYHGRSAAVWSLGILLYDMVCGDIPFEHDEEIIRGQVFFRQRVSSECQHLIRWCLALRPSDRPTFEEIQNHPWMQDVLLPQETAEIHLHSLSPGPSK

Serine/threonine-protein kinase Chk2 (Homo sapiens), sequence (O96017 whole entry): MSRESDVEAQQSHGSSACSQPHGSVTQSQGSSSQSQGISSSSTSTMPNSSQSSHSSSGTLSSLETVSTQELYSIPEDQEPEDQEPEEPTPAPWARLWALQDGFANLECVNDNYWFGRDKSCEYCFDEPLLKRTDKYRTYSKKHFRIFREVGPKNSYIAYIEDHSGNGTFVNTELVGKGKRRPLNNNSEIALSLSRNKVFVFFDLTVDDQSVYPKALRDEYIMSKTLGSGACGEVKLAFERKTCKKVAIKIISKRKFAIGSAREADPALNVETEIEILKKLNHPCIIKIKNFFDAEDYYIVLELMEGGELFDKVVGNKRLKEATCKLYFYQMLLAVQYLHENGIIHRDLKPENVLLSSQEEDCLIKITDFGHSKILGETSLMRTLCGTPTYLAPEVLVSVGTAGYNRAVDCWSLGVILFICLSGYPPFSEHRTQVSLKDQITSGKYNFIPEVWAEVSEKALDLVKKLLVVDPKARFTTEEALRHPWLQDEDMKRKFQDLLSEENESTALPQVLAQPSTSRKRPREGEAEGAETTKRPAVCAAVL

SMILES	inhibition [1] [%]	inhibition [2] [%]	inhibition [3] [%]	EC50 [4] [nM]	inhibition [5] [%]	inhibition [6] [%]	EC50 [7] [nM]	inhibition [8]	inhibition [9] [%]
O=C1NCC2(CCNCC2)c2[nH]c(-c3ccnc(-c4cccc(F)c4)n3)cc21	> 80	> 80	> 80	1400	> 80	> 80	8.3	inactive	> 80
O=C1NCC2(CCNCC2)c2[nH]c(-c3ccnc(-c4cnc(NC5CCCC5)nc4)n3)cc21	> 80	> 80	> 80	2600	> 80	> 80	4.9	inactive	> 80
O=C1NCC2(CCNCC2)c2[nH]c(-c3ccnc(-c4cccnc4)n3)cc21	> 80	> 80	> 80	> 10000	> 80	> 80	1.1	inactive	> 80
O=C1NCC2(CCNCC2)c2[nH]c(-c3ccnc(-c4ccccc4F)n3)cc21	> 80	> 80	> 80	4200	> 80	> 80	29	inactive	> 80
Nc1ccc(-c2nccc(-c3cc4c([nH]3)C3(CCNCC3)CNC4=O)n2)cn1	> 80	> 80	> 80	> 10000	> 80	> 80	15	inactive	> 80
O=C1NCC2(CCNCC2)c2[nH]c(-c3ccnc(-c4cnc5ccccc5c4)n3)cc21	> 80	> 80	> 80	4800	> 80	> 80	–	inactive	> 80
Nc1ncc(-c2nccc(-c3cc4c([nH]3)C3(CCNCC3)CNC4=O)n2)cn1	> 80	> 80	> 80	> 10000	> 80	> 80	5	inactive	> 80
O=C1NCCc2[nH]c(-c3ccnc(-c4ccccc4F)c3)cc21	> 80	> 80	> 80	9100	–	–	–	inactive	> 80

Continued, values first:

inhibition [1] [%]	inhibition [2] [%]	inhibition [3] [%]	EC50 [4] [nM]	inhibition [5] [%]	inhibition [6] [%]	EC50 [7] [nM]	inhibition [8]	inhibition [9] [%]	SMILES
> 80	> 80	> 80	5000	> 80	> 80	9.8	inactive	> 80	CC(=O)c1ccc(-c2nccc(-c3cc4c([nH]3)C3(CCNCC3)CNC4=O)n2)cc1
> 80	> 80	> 80	6300	> 80	> 80	4.5	inactive	> 80	O=C1NCC2(CCNCC2)c2[nH]c(-c3ccnc(-c4cc(Cl)cc(Cl)c4)n3)cc21
> 80	> 80	> 80	6300	> 80	> 80	6.9	inactive	> 80	O=C1NCC2(CCNCC2)c2[nH]c(-c3ccnc(-c4ccc(C(F)(F)F)cc4)n3)cc21
> 80	> 80	> 80	> 10000	> 80	> 80	6.2	inactive	> 80	CCC(=O)Nc1ccc(-c2nccc(-c3cc4c([nH]3)C3(CCNCC3)CNC4=O)n2)cn1
